Results: US20240299597A1, “3-Iodopropyl-1,2,3-Triazol-1-yl, 3-Bromopropyl-1,2,3-Triazol-1-yl, and Derivatives for Uses in Labeling” (Emory University, priority 2021, published 2024)

Test: Storage stability / shelf life of F-18 labeling precursors
Assay type: physicochemical
Settings: for stability to storage compared to the tosylate and 4-bromo-tosylate derivatives: comparison in the FIG. 1C legend; for stability on storage: stored below 0 C

Structure (SMILES) | stability to storage compared to the tosylate and 4-bromo-tosylate derivatives | stability on storage
CC(=O)OCC1OC(OC2C(COC(C)=O)OC(OC3C(COC(C)=O)OC(OCCCn4cc(CCCBr)nn4)C(OC(C)=O)C3OC(C)=O)C(OC(C)=O)C2OC(C)=O)C(OC(C)=O)C(OC(C)=O)C1OC(C)=O (stereo not shown) [3-bromopropyl-precursor, 2-(acetoxymethyl)-6-((4,5-diacetoxy-2-(acetoxymethyl)-6-((4,5-diacetoxy-2-(acetoxymethyl)-6-(3-(4-(3-bromopropyl)-1H-1,2,3-triazol-1-yl)propoxy)tetrahydro-2H-pyran-3-yl)oxy)tetrahydro-2H-pyran-3-yl)oxy)tetrahydro-2H-pyran-3,4,5-triyl triacetate] | more statable to storage | stable
CC(=O)OCC1OC(OC2C(COC(C)=O)OC(OC3C(COC(C)=O)OC(OCCCn4cc(CCCI)nn4)C(OC(C)=O)C3OC(C)=O)C(OC(C)=O)C2OC(C)=O)C(OC(C)=O)C(OC(C)=O)C1OC(C)=O (stereo not shown) [3-iodopropyl-precursor, 2-(acetoxymethyl)-6-((4,5-diacetoxy-2-(acetoxymethyl)-6-((4,5-diacetoxy-2-(acetoxymethyl)-6-(3-(4-(3-iodopropyl)-1H-1,2,3-triazol-1-yl)propoxy)tetrahydro-2H-pyran-3-yl)oxy)tetrahydro-2H-pyran-3-yl)oxy)tetrahydro-2H-pyran-3,4,5-triyl triacetate] | more statable to storage | stable
